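Test compounds were applied to cells in 96-well plates for 48 hours at 5 doses. Abbreviation: GI50, concentration required for 50% inhibition of growth. TGI: total growth inhibition.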
Legend:
Experiment in all cases: DTP human tumour cell line panel, 48 h
CAKI-1 renal = test system: CAKI-1 renal
A498 renal = test system: A498 renal
HT29 colon = test system: HT29 colon
OVCAR-5 ovarian = test system: OVCAR-5 ovarian
MALME-3M melanoma = test system: MALME-3M melanoma
HCT-116 colon = test system: HCT-116 colon
SK-MEL-2 melanoma = test system: SK-MEL-2 melanoma
SF-539 CNS = test system: SF-539 CNS
786-0 renal = test system: 786-0 renal
SF-295 CNS = test system: SF-295 CNS
SN12C renal = test system: SN12C renal
UACC-257 melanoma = test system: UACC-257 melanoma
TK-10 renal = test system: TK-10 renal
A549 NSCLC = test system: A549 NSCLC
NCI-H522 lung = test system: NCI-H522 lung
SK-MEL-28 melanoma = test system: SK-MEL-28 melanoma
KM12 colon = test system: KM12 colon
UACC-62 melanoma = test system: UACC-62 melanoma
SR leukemia = test system: SR leukemia
U251 CNS = test system: U251 CNS
RPMI-8226 leukemia = test system: RPMI-8226 leukemia
MDA-MB-231 breast = test system: MDA-MB-231 breast
MOLT-4 leukemia = test system: MOLT-4 leukemia
SK-OV-3 ovarian = test system: SK-OV-3 ovarian
HOP-62 NSCLC = test system: HOP-62 NSCLC
DU-145 prostate = test system: DU-145 prostate
HL-60(TB) leukemia = test system: HL-60(TB) leukemia
PC-3 prostate = test system: PC-3 prostate
HS 578T breast = test system: HS 578T breast
HOP-92 NSCLC = test system: HOP-92 NSCLC
SNB-75 CNS = test system: SNB-75 CNS
SW-620 colon = test system: SW-620 colon
MDA-MB-435 = test system: MDA-MB-435
MCF7 breast = test system: MCF7 breast
IGROV1 ovarian = test system: IGROV1 ovarian
HCC-2998 colon = test system: HCC-2998 colon
COLO 205 colon = test system: COLO 205 colon
HCT-15 colon = test system: HCT-15 colon
OVCAR-4 ovarian = test system: OVCAR-4 ovarian
RXF 393 renal = test system: RXF 393 renal
SNB-19 CNS = test system: SNB-19 CNS
EKVX NSCLC = test system: EKVX NSCLC
K-562 leukemia = test system: K-562 leukemia
T-47D breast = test system: T-47D breast
SF-268 CNS = test system: SF-268 CNS
M14 melanoma = test system: M14 melanoma
NCI/ADR-RES ovarian = test system: NCI/ADR-RES ovarian
NCI-H460 lung = test system: NCI-H460 lung
NCI-H226 lung = test system: NCI-H226 lung
OVCAR-8 ovarian = test system: OVCAR-8 ovarian
BT-549 breast = test system: BT-549 breast
LOX IMVI melanoma = test system: LOX IMVI melanoma
CCRF-CEM leukemia = test system: CCRF-CEM leukemia
ACHN renal = test system: ACHN renal
UO-31 renal = test system: UO-31 renal
NCI-H23 lung = test system: NCI-H23 lung
SK-MEL-5 melanoma = test system: SK-MEL-5 melanoma

## C#Cc1nc(/C=C/C(=O)c2nccn2C)cs1
CAKI-1 renal
  GI50: 735 nM
  TGI: 1480 nM
A498 renal
  GI50: 780 nM
  TGI: 1520 nM
HT29 colon
  GI50: 837 nM
  TGI: 1700 nM
OVCAR-5 ovarian
  GI50: 859 nM
  TGI: 1600 nM
MALME-3M melanoma
  GI50: 893 nM
  TGI: 1830 nM
HCT-116 colon
  GI50: 456 nM
  TGI: 1220 nM
SK-MEL-2 melanoma
  GI50: 909 nM
  TGI: 2060 nM
SF-539 CNS
  GI50: 748 nM
  TGI: 1470 nM
786-0 renal
  GI50: 262 nM
  TGI: 623 nM
SF-295 CNS
  GI50: 961 nM
  TGI: 1870 nM
SN12C renal
  GI50: 797 nM
  TGI: 1700 nM
UACC-257 melanoma
  GI50: 732 nM
  TGI: 1610 nM
TK-10 renal
  GI50: 1170 nM
  TGI: 2120 nM
A549 NSCLC
  GI50: 1110 nM
  TGI: 3060 nM
NCI-H522 lung
  GI50: 566 nM
  TGI: 1370 nM
SK-MEL-28 melanoma
  GI50: 915 nM
  TGI: 2040 nM
KM12 colon
  GI50: 498 nM
  TGI: 1200 nM
UACC-62 melanoma
  GI50: 715 nM
  TGI: 1460 nM
SR leukemia
  GI50: 125 nM
  TGI: 471 nM
U251 CNS
  GI50: 775 nM
  TGI: 1540 nM
RPMI-8226 leukemia
  GI50: 205 nM
  TGI: 894 nM
MDA-MB-231 breast
  GI50: 708 nM
  TGI: 1500 nM
MOLT-4 leukemia
  GI50: 859 nM
  TGI: 2500 nM
SK-OV-3 ovarian
  GI50: 1180 nM
  TGI: 2440 nM
HOP-62 NSCLC
  GI50: 1050 nM
  TGI: 1960 nM
DU-145 prostate
  GI50: 583 nM
  TGI: 1280 nM
HL-60(TB) leukemia
  GI50: 167 nM
  TGI: 645 nM
PC-3 prostate
  GI50: 778 nM
  TGI: 1690 nM
HS 578T breast
  GI50: 1040 nM
  TGI: 3130 nM
HOP-92 NSCLC
  GI50: 1050 nM
  TGI: 1880 nM
SNB-75 CNS
  GI50: 668 nM
  TGI: 1360 nM
SW-620 colon
  GI50: 607 nM
  TGI: 1400 nM
MDA-MB-435
  GI50: 976 nM
  TGI: 2820 nM
MCF7 breast
  GI50: 537 nM
  TGI: 1940 nM
IGROV1 ovarian
  GI50: 105 nM
  TGI: 215 nM
HCC-2998 colon
  GI50: 880 nM
  TGI: 1620 nM
COLO 205 colon
  GI50: 815 nM
  TGI: 1730 nM
HCT-15 colon
  GI50: 510 nM
  TGI: 1310 nM
OVCAR-4 ovarian
  GI50: 1000 nM
  TGI: 2340 nM
RXF 393 renal
  GI50: 502 nM
  TGI: 1390 nM
SNB-19 CNS
  GI50: 812 nM
  TGI: 1550 nM
EKVX NSCLC
  GI50: 964 nM
  TGI: 1960 nM
K-562 leukemia
  GI50: 377 nM
  TGI: 2260 nM
T-47D breast
  GI50: 229 nM
  TGI: 1380 nM
SF-268 CNS
  GI50: 813 nM
  TGI: 1830 nM
M14 melanoma
  GI50: 845 nM
  TGI: 1980 nM
NCI/ADR-RES ovarian
  GI50: 723 nM
  TGI: 2700 nM
NCI-H460 lung
  GI50: 898 nM
  TGI: 2100 nM
NCI-H226 lung
  GI50: 1490 nM
  TGI: 9130 nM
OVCAR-8 ovarian
  GI50: 1160 nM
  TGI: 4360 nM
BT-549 breast
  GI50: 815 nM
  TGI: 1530 nM
LOX IMVI melanoma
  GI50: 22.9 nM
  TGI: 49.9 nM
CCRF-CEM leukemia
  GI50: 149 nM
  TGI: 566 nM
ACHN renal
  GI50: 291 nM
  TGI: 794 nM
UO-31 renal
  GI50: 132 nM
  TGI: 355 nM
NCI-H23 lung
  GI50: 798 nM
  TGI: 1720 nM
SK-MEL-5 melanoma
  GI50: 1040 nM
  TGI: 2320 nM

From PubChem BioAssay (NCI)
